# Entries after “also recorded” stand apart in the source; their conditions may differ. Bridge positions count the residues as written; N and C are the ends. Ends that are not written are not given here. Peptide text beside a SMILES is read from it.
# How the values were obtained:
# [1] = target: T1, rASIC1a (Rattus norvegicus, UniProt P55926); assay: Two-electrode voltage clamp (TEVC) on Xenopus laevis oocytes expressing homomeric rASIC1a; type: cell-based; conditions: for Extent of inhibition of ASIC1a currents (full or incomplete): at saturating concentrations; for Reversibility of inhibition (in words) / Rapidly reversible inhibition: upon washout; for Rapidly reversible inhibition: Table 1; for % Residual Current: current remaining at saturating peptide concentrations; for Potency compared to wild-type Hi1a (in words): point mutants
# T1 construct: expressed in transfected cells; host or cells: Xenopus laevis oocytes injected with cRNA
# T1 sequence (P55926 1-526): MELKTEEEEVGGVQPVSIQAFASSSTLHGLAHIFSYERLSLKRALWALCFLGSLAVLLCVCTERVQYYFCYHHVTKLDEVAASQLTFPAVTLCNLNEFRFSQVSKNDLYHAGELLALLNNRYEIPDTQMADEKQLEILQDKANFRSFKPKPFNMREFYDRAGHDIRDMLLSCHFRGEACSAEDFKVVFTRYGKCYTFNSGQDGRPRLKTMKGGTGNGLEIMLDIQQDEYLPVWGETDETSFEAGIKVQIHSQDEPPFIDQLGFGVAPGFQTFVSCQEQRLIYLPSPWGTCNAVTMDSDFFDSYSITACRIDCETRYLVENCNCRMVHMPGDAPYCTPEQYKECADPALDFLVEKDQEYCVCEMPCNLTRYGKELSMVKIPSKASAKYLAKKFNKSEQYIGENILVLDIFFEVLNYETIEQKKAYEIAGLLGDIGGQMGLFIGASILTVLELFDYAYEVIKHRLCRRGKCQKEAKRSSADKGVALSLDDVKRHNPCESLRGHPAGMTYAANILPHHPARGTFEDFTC
# Procedure: The ability of the peptides of the invention to modulate ASIC currents was assessed using two-electrode voltage clamp (TEVC) electrophysiology experiments performed on Xenopus laevis oocytes expressing homomeric ASIC channels. Xenopus oocytes are widely used as an expression system for functional characterisation of ion channel modulators. TEVC allows measurement of whole-cell ion channel currents while controlling the membrane potential.
# Oocytes were harvested from anaesthetised female X. laevis then defolliculated by treatment with collagenase (Sigma, type I). Oocytes were injected with in vitro transcribed ASIC cRNA (capped RNA). Oocytes were kept at 17-18° C. in ND96 solution containing 96 mM NaCl, 2 mM KCl, 1.8 mM CaCl2, 2 mM MgCl2, 5 mM HEPES, 5 mM pyruvic acid, 50 μg/ml gentamicin (pH 7.4), and fetal horse serum (2.5%), and experiments were performed at room temperature (21-22° C.) 1-3 days after cRNA injection. Oocytes were clamped at −60 mV (Warner OC-725C oocyte clamp; Warner Instruments, CT, USA) using two standard glass microelectrodes of 0.5-2 MΩ resistance when filled with 3 M KCl. Data acquisition and analysis were performed using pCLAMP software, Version 10 (Axon Instruments, CA, USA). Currents were elicited by a drop in pH from 7.45 to 6.0 using a microperfusion system to allow rapid solution exchange. All experiments were performed using ND96 solution spiked with 0.1% BSA in order to minimise adsorption of peptides to plastic tubing.
# [2] = tested on: spontaneously hypertensive rats (SHR); assay: Focal reperfusion (endothelin-1) stroke model in conscious SHR, i.c.v. administration; type: in vivo, rat; conditions: single i.c.v. dose two hours after stroke; Hi1a 2 ng/kg, PcTx1 and mutant 1 ng/kg; 72 h post-stroke
# Procedure: The neuroprotective efficacy of Hi1a was assessed in a rat model of focal cerebral ischemia. In vivo experiments were conducted using a focal reperfusion model of stroke in conscious spontaneously hypertensive rats (SHR) as previously reported (McCarthy et al., Neuropharmacology 99, 650-657, 2015). Two 23-gauge stainless steel guide cannulae were stereotaxically implanted into anaesthetised animals (ketamine 75 mg/kg; xylazine 10 mg/kg; intraperitoneal) 5 days prior to stroke induction. The first cannula was implanted 3 mm dorsal to the right middle cerebral artery for stroke induction. The second cannula was implanted into the left lateral ventricle for drug administration. […]
# Compared to models of middle cerebral artery occlusion (MCAO) achieved by surgical exposure of the artery, this model has the advantage of minimal surgical intervention in the brain, and the stroke is induced in the absence of anaesthetics, which can confound the results of drug studies (Callaway et al., 1999; Sharkey et al., 1993). Stroke-induced motor deficit was assessed by counting the number of foot faults made while rats traversed a gradually narrowing ledged beam (McCarthy et al., Stroke 40, 1482-1489, 2009). […] For the neurological score, postural abnormalities were assessed by elevating the rat by the tail above a flat surface and grading the severity of thorax twisting and the angle of forelimb extension. […]
# [3] = tested on: ASIC1a; conditions: McCarthy et al., 2015; cited from earlier work
Compound,Extent of inhibition of ASIC1a currents (full or incomplete) [1],Reversibility of inhibition (in words) [1],Rapidly reversible inhibition [1],IC50 [1],% Residual Current [1],other results
"CC[C@H](C)[C@@H]1NC(=O)[C@@H](NC(=O)[C@H](CCC(=O)O)NC(=O)[C@H](CC(N)=O)NC(=O)[C@@H](N)CO)CSSC[C@@H]2NC(=O)[C@@H]3CSSC[C@@H](C(=O)N[C@H](C(=O)N4CCC[C@H]4C(=O)N[C@H](C(=O)N4CCC[C@H]4C(=O)O)[C@@H](C)CC)C(C)C)NC(=O)[C@H](C(C)C)NC(=O)[C@H](CCC(=O)O)NC(=O)[C@H](Cc4ccccc4)NC(=O)[C@H](CO)NC(=O)[C@H](Cc4c[nH]cn4)NC(=O)[C@H](CCCNC(=N)N)NC(=O)[C@H](CCCNC(=N)N)NC(=O)[C@H](CCCCN)NC(=O)[C@H](Cc4ccc(O)cc4)NC(=O)[C@H](CSSC[C@H](NC(=O)[C@H](CO)NC(=O)[C@H](CC(C)C)NC(=O)[C@H](Cc4c[nH]c5ccccc45)NC(=O)[C@H](CCCCN)NC(=O)[C@H](CCCNC(=N)N)NC1=O)C(=O)N[C@@H](C(C)C)C(=O)N[C@@H](CC(=O)O)C(=O)N[C@@H](CCCNC(=N)N)C(=O)N[C@@H](CCCCN)C(=O)N[C@@H](CC(N)=O)C(=O)N[C@@H](CC(=O)O)C(=O)N3)NC(=O)[C@H](CCC(=O)O)NC(=O)[C@H](CC(C)C)NC(=O)CNC(=O)[C@H](CCC(=O)O)NC2=O [Hi1a_N] (H-SNECIRKWLSCVDRKNDCCEGLECYKRRHSFEVCVPIP-OH; disulfide 4-19, 11-24, 18-34)",fully inhibit,fully reversible,,,,Fold lower potency than PcTx1 or full-length Hi1a [1]: ~1000 fold
"Hi1a_C: C-terminal ICK domain of Hi1a expressed separately in E. coli, SEQ ID NO:21 (IPGFCLVKWKQCDGRERDCCAGLECWKRSGNKSSVCAPIT; listed as Hadronyche infensa)",,,,,,Effect on current ([1]; at 1 μM): minor potentiation; Inhibition ([1]; at 10 μM): negligible inhibition; Inhibitory effect ([1]; up to 30 μM): no observed inhibitory effect
"PcTx1 mutant iso 2: Double-mutant PcTx1 analogue (R27A/V32A) that is inactive against ASIC1a (EDCIPKWKGCVNRHGDCCEGLECWKRARSFEACVPKTPKT; ends and bridges not checked; cysteine pairing not given here; UniProt P60514 1-40, looked up, variant R27A V32A)",,,,,,Infarct size in cortical (penumbral) and striatal (core) regions [2]: completely ineffective; also recorded: no effect; Activity against ASIC1a [3]: inactive
"QECIAKWKSCAGRKLDCCEGLECWKRRWGHEVCVPITQKIFCLEKWKSCFERKYDCCEELECWERRGNKHPVCAPKQ (disulfide 3-18, 10-23, 17-33, 42-57, 49-62, 56-73) [Hi1d]",complete,,Yes,,,
"SEDCIPKWKGCVNRHGDCCEGLECWKRRRSFEVCVPKTEDCIPKWKGCVNRHGDCCEGLECWKRRRSFEVCVPKTPKT (disulfide 4-19, 11-24, 18-34, 41-56, 48-61, 55-71) [EP 1]",full inhibition,slowly reversible,No,64 nM,0%,Fold increase in IC50 (decrease in potency) relative to wild-type Hi1a [1]: ~200 fold
"SEDCIPKWKGCVNRHGDCCEGLECWKRRRSFEVCVPKTGDCIPKWKGCVNRHGDCCEGLECWKRRRSFEVCVPKTPKT (disulfide 4-19, 11-24, 18-34, 41-56, 48-61, 55-71) [EP 2]",full inhibition,slowly reversible,No,215 nM,0%,Fold increase in IC50 (decrease in potency) relative to wild-type Hi1a [1]: ~500 fold
"SEDCIPKWKGCVNRHGDCCEGLECWKRRRSFEVCVPKTPKTIPGFCLVKWKQCDGRERDCCAGLECWKRSGNKSSVCAPIT (disulfide 4-19, 11-24, 18-34, 46-61, 53-66, 60-77) [PcTx1/Hi1a_C]",incomplete inhibition,slowly reversible,No,1.3 nM,~35%,Fold increase in IC50 (decrease in potency) relative to wild-type Hi1a [1]: 3 fold
"SNECIRKWKSCVDRKNDCCEGLECYKRRHSFEVCVPIPGFCLVKWKQCDGRERDCCAGLECWKRSGNKSSVCAPIT (disulfide 4-19, 11-24, 18-34, 41-56, 48-61, 55-72) [Hi1a L8K]",,,No,0.976 nM,30%,Potency compared to wild-type Hi1a (in words) [1]: little effect
"SNECIRKWLSCVDRKNDCCEGLECWKRRHSFEVCVPIPGFCLVKWKQCDGRERDCCAGLECWKRSGNKSSVCAPIT (disulfide 4-19, 11-24, 18-34, 41-56, 48-61, 55-72) [Hi1a Y24W]",full inhibition,,No,0.537 nM,0%,
"SNECIRKWLSCVDRKNDCCEGLECYKRRHSFEVCVPGGGGGGFCLVKWKQCDGRERDCCAGLECWKRSGNKSSVCAPIT (disulfide 4-19, 11-24, 18-34, 44-59, 51-64, 58-75) [EP 3]",,,,> 4 nM,80%,Inhibition of rASIC1a currents ([1]; applied at up to 1 μM): ≤ 20%
"SNECIRKWLSCVDRKNDCCEGLECYKRRRSFEVCVPIPGFCLVKWKQCDGRERDCCAGLECWKRSGNKSSVCAPIT (disulfide 4-19, 11-24, 18-34, 41-56, 48-61, 55-72) [Hi1a H28R]",,,No,0.115 nM,20%,Potency compared to wild-type Hi1a (in words) [1]: slightly increased potency
